This assay deals with Human peripheral blood mononuclear cells (PBMCs) as Responder cells, RPMI 1788 Stimulator cells. As to the kind of experiment: Mixed Lymphocyte Reaction (MLR) test. It is filed as cell-based. Conditions: 6 days coculture, 3H-thymidine incorporation. The method in brief:
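Proliferation was read as cpm after a 1 μCi ^3H-thymidine pulse on day 5 and harvest 18 h later, then expressed as % inhibition relative to an MLR without compound. The 6-day triplicate cocultures combined 0.12×10^6 Ficoll-isolated human PBMCs with 0.045×10^6 mitomycin C-inactivated RPMI 1788 cells in RPMI 1640 with 10% FCS.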

Setting [1] is: Homo sapiens, RPMI-1788, lowest concentration giving 50% inhibition of the MLR.
The mark [2] stands for this setting: lowest concentration giving 50% inhibition of the MLR.

What is called IC50 is the concentration that inhibits the measured activity by half. The low end stands for higher potency, the high end for lower potency. `Nc1nc(N2CCN(C(=O)COc3ccc(Cl)cc3)CC2)c2nc(CCc3ccc(F)cc3)sc2n1` [Example 49, 1-(4-(5-amino-2-(4-fluorophenethyl)-thiazolo[5,4-d]pyrimidin-7-yl)piperazin-1-yl)-2-(4-chlorophenoxy)ethanone] showed an IC50 under setting [1] of 4.4 µM. The same measure, in the same setting: the result for `O=C(COc1ccc(Cl)cc1)N1CCN(c2ncnc3sc(-c4ccc(F)cc4)cc23)CC1` [Example 312, 2-(4-chlorophenoxy)-1-(4-(6-(4-fluorophenyl)thieno[2,3-d]pyrimidin-4-yl)piperazin-1-yl)ethanone] reads 6.35 µM.

Regarding `Nc1nc(N2CCN(C(=O)COc3ccc(Br)cc3)CC2)c2nc(-c3ccc(F)cc3)sc2n1` [Example 128, 5-amino-2-(4-fluorophenyl)-7-(4-[2-(4-bromophenoxy)acetyl]-piperazin-1-yl)-thiazolo[5,4-d]pyrimidine], the IC50 under setting [2] was found to be 0.38 µM.

As for `CC(=O)N1CCN(c2nc(N)nc3oc(-c4ccc(F)cc4)nc23)CC1` [Example 191, 5-amino-2-(4-fluorophenyl)-7-(4-acetylpiperazin-1-yl)-oxazolo[5,4-d]pyrimidine], the IC50 under setting [1] is > 10 µM. The compound `Nc1nc(N2CCN(C(=O)COc3ccc(Cl)cc3)CC2)c2nc(CCCc3ccc(F)cc3)sc2n1` [Example 290, 1-(4-(5-amino-2-(3-(4-fluorophenyl)propyl)thiazolo[5,4-d]pyrimidin-7-yl)piperazin-1-yl)-2-(4-chlorophenoxy)ethanone] registered an IC50 under setting [1] of 0.96 µM. Still for that read-out and setting: the result for `Nc1nc(N2CCN(C(=O)COc3ccc(Cl)cc3)CC2)c2nc(C3(c4ccc(Cl)cc4)CC3)sc2n1` [Example 117, 5-amino-7-[4-(4-chlorophenoxyacetyl)piperazin-1-yl]-2-(1-(4-chlorophenyl)cyclopropyl)thiazolo[5,4-d]pyrimidine] reads 2.51 µM; that for `COC(=O)c1ccc(OCC(=O)N2CCN(c3nc(N)nc4sc(CCc5ccc(F)cc5)nc34)CC2)cc1` [Example 225, methyl 4-(2-(4-(5-amino-2-(4-fluorophenethyl)thiazolo[5,4-d]pyrimidin-7-yl)piperazin-1-yl)-2-oxoethoxy)benzoate], > 10 µM; that for `COCCN1CCN(c2nc(N)nc3oc(-c4ccc(F)cc4)nc23)CC1` [Example 192, 5-amino-2-(4-fluorophenyl)-7-[4-(2-methoxyethyl)-piperazin-1-yl]-oxazolo[5,4-d]pyrimidine], > 10 µM. Compound `COc1ccc(OCC(=O)N2CCN(c3nc(N)nc4sc(CCCc5ccc(F)cc5)nc34)CC2)cc1` [Example 291, 1-(4-(5-amino-2-(3-(4-fluorophenyl)propyl)thiazolo[5,4-d]pyrimidin-7-yl)piperazin-1-yl)-2-(4-methoxyphenoxy)ethanone] came in with an IC50 under setting [1] of 1.11 µM.

Under setting [1], `Nc1nc(N2CCN(c3ccc(Cl)cc3)CC2)c2nc(-c3ccc(F)cc3)[nH]c2n1` [Example 414, 6-(4-(4-chlorophenyl)piperazin-1-yl)-8-(4-fluorophenyl)-9H-purin-2-amine] returned an IC50 of 3.87 µM. For `Nc1nc(N2CC[C@@H](NC(=O)COc3ccc(Cl)cc3)C2)c2nc(CCc3ccc(F)cc3)sc2n1` [Example 143, 5-amino-2-[2-(4-fluorophenyl)ethyl]-7-(3-(R)-[2-(4-chlorophenoxy)-acetylamino]pyrrolidin-1-yl)-thiazolo[5,4-d]pyrimidine], under setting [1], the IC50 is > 10 µM. Regarding `COc1ccc(OCC(=O)N2CCN(c3nc(N)nc4sc(-c5ccccc5)cc34)CC2)cc1` [Example 369, 1-(4-(2-amino-6-phenylthieno[2,3-d]pyrimidin-4-yl)piperazin-1-yl)-2-(4-methoxyphenoxy)ethanone], under setting [1], inhibition was half-maximal at 0.072 µM (IC50). In other words, the double-digit nanomolar range. The same measure, in the same setting: the result for `COc1cccc(C(=O)N2CCN(c3nc(N)nc4[nH]c(-c5ccc(F)cc5)nc34)CC2)c1` [Example 402, (4-(2-amino-8-(4-fluorophenyl)-9H-purin-6-yl)piperazin-1-yl)(3-methoxyphenyl)methanone] reads > 10 µM. For `Nc1nc(N[C@H]2CCN(C(=O)COc3ccc(Cl)cc3)C2)c2nc(CCc3ccc(F)cc3)sc2n1` [Example 147, 5-amino-2-[2-(4-fluorophenyl)ethyl]-7-(1-(4-chlorophenoxyacetyl)pyrrolidin-3-(S)-ylamino)-thiazolo[5,4-d]pyrimidine], under setting [1], half-maximal inhibition (IC50) was put at 4.52 µM.

`Nc1nc(N2CCN(C(=O)COc3ccc(Cl)cc3)CC2)c2nc(-c3ccc(Cl)c(Cl)c3)sc2n1` [Example 116, 5-amino-7-[4-(4-chlorophenoxyacetyl)piperazin-1-yl]-2-(3,4-dichlorophenyl)thiazolo[5,4-d]pyrimidine] gave an IC50 under setting [1] of 5.29 µM. Same read-out and setting: the result for `Nc1nc(N2CCN(C(=O)Nc3ccc(Cl)cc3)CC2)c2cc(-c3ccccc3)sc2n1` [Example 331, 4-(2-amino-6-phenylthieno[2,3-d]pyrimidin-4-yl)-N-(4-chlorophenyl)piperazine-1-carboxamide] reads 6.7 µM; that for `CCOc1nc(N)nc2sc(-c3ccc(F)cc3)nc12` [Example 30, 7-ethoxy-2-(4-fluorophenyl)thiazolo[5,4-d]pyrimidin-5-amine], > 10 µM; that for `Nc1nc(N2CCN(C(=O)COc3ccc(F)cc3)CC2)c2nc(-c3cccnc3)sc2n1` [Example 272, 1-(4-(5-amino-2-(pyridin-3-yl)thiazolo[5,4-d]pyrimidin-7-yl)piperazin-1-yl)-2-(4-fluorophenoxy)ethanone], 0.012 µM. The same measure, in the same setting: the result for `COc1ccc(OCC(=O)N2CCN(c3nc(N)nc4sc(CCc5ccc(C)cc5)nc34)CC2)cc1` [Example 259, 1-(4-(5-amino-2-(4-methylphenethyl)thiazolo[5,4-d]pyrimidin-7-yl)piperazin-1-yl)-2-(4-methoxyphenoxy)ethanone] reads 0.96 µM; that for `Nc1nc(N2CCN(C(=O)COc3ccc(Cl)cc3)CC2)c2nc(SCCc3ccccc3)[nH]c2n1` [Example 427, 1-(4-(2-amino-8-(phenethylthio)-9H-purin-6-yl)piperazin-1-yl)-2-(4-chlorophenoxy)ethanone], > 10 µM.

For the compound `COCCOc1nc(N)nc2sc(-c3ccc(F)cc3)nc12` [Example 29, 2-(4-fluorophenyl)-7-(2-methoxyethoxy)-thiazolo[5,4-d]pyrimidin-5-amine], the IC50 under setting [1] was > 10 µM.

For `Nc1nc(N2CCN(C(=O)COc3ccc(Cl)cc3)CC2)c2nc(C3CC3)[nH]c2n1` [Example 398, 1-(4-(2-amino-8-cyclopropyl-9H-purin-6-yl)piperazin-1-yl)-2-(4-chlorophenoxy)ethanone], the concentration for half-maximal inhibition (IC50) under setting [1] stood at 0.43 µM.

As for `COc1ccc(OCC(=O)N2CCN(c3nc(N)nc4sc(-c5ccc(Cl)cc5)nc34)CC2)cc1` [Example 270, 1-(4-(5-amino-2-(4-chlorophenyl)thiazolo[5,4-d]pyrimidin-7-yl)piperazin-1-yl)-2-(4-methoxyphenoxy)ethanone], the IC50 under setting [2] turned out to be 0.15 µM. `CCC(c1ccc(F)cc1)c1nc2c(N3CCN(C(=O)COc4ccc(Cl)cc4)CC3)nc(N)nc2s1` (stereo not drawn) [Example 150, 5-amino-2-[1-(4-fluorophenyl)propyl]-7-(4-[2-(4-chlorophenoxy)acetyl]piperazin-1-yl)thiazolo[5,4-d]pyrimidine] yielded an IC50 under setting [1] of 5.39 µM. In the case of `Nc1nc(N2CCN(C(=O)c3ccc(Cl)cc3)CC2)c2nc(CCc3ccc(F)cc3)sc2n1` [Example 135, 5-amino-2-[2-(4-fluorophenyl)ethyl]-7-[4-(4-chlorobenzoyl)piperazin-1-yl]-thiazolo[5,4-d]pyrimidine], the IC50 under setting [1] is > 10 µM. On the same count and under the same terms, next, `Nc1nc(N2CCN(C(=O)COc3ccc(Cl)cc3)CC2)c2nc(SC3CCCC3)[nH]c2n1` [Example 429, 1-(4-(2-amino-8-(cyclopentylthio)-9H-purin-6-yl)piperazin-1-yl)-2-(4-chlorophenoxy)ethanone]: 0.51 µM; `Nc1nc(N2CCN(CC(=O)Nc3nccs3)CC2)c2nc(-c3ccc(F)cc3)[nH]c2n1` [Example 417, 2-(4-(2-amino-8-(4-fluorophenyl)-9H-purin-6-yl)piperazin-1-yl)-N-(thiazol-2-yl)acetamide]: > 10 µM. Regarding `COc1ccc(OCC(=O)N2CCN(c3nc(N)nc4sc(-c5cccnc5)nc34)CC2)cc1` [Example 271, 1-(4-(5-amino-2-(pyridin-3-yl)thiazolo[5,4-d]pyrimidin-7-yl)piperazin-1-yl)-2-(4-methoxyphenoxy)ethanone], the IC50 under setting [1] turned out to be 0.012 µM. Still for that read-out and setting: the result for `Nc1nc(N2CCN(CC(=O)Nc3cccnc3)CC2)c2nc(-c3ccc(F)cc3)[nH]c2n1` [Example 412, 2-(4-(2-amino-8-(4-fluorophenyl)-9H-purin-6-yl)piperazin-1-yl)-N-(pyridin-3-yl)acetamide] reads 8.61 µM; that for `Cc1cccc(NC(=O)N2CCN(c3nc(N)nc4sc(-c5ccccc5)cc34)CC2)c1` [Example 330, 4-(2-amino-6-phenylthieno[2,3-d]pyrimidin-4-yl)-N-m-tolylpiperazine-1-carboxamide], 0.93 µM.

Turning to `CC(C)(Oc1ccc(Cl)cc1)C(=O)N1CCN(c2nc(N)nc3sc(-c4ccccc4)cc23)CC1` [Example 373, 1-(4-(2-amino-6-phenylthieno[2,3-d]pyrimidin-4-yl)piperazin-1-yl)-2-(4-chlorophenoxy)-2-methylpropan-1-one], under setting [1], the concentration for half-maximal inhibition (IC50) worked out at 6.92 µM.

In turn, `Nc1nc(N2CCN(C(=O)Cc3ccc(Cl)cc3)CC2)c2nc(CCc3ccc(F)cc3)sc2n1` [Example 132, 5-amino-2-[2-(4-fluorophenyl)ethyl]-7-(4-[2-(4-chlorophenyl)acetyl]piperazin-1-yl)-thiazolo[5,4-d]pyrimidine] had a concentration for half-maximal inhibition (IC50) under setting [1] of 0.44 µM. The same measure, in the same setting: the result for `Nc1nc(N2CCN(C(=O)CCc3ccc(Br)cc3)CC2)c2nc(CCc3ccc(F)cc3)sc2n1` [Example 223, 1-(4-(5-amino-2-(4-fluorophenethyl)thiazolo[5,4-d]pyrimidin-7-yl)piperazin-1-yl)-3-(4-bromophenyl)propan-1-one] reads > 10 µM.

The record behind these values is patent US9221822B2, “Thiazolopyrimidine modulators as immunosuppressive agents” (Katholieke Universiteit Leuven, K.U.Leuven R&D, priority 2009, dated 2015).
